Laboratory results: patent publication US20080125460A1, “Imidazopyridine-Derivatives As Inducible No-Synthase Inhibitors” (Altana Pharma AG, priority 2003, published 2008)

Key:
[1] = biological target: human inducible NO-synthase (Homo sapiens, UniProt P35228); experiment: Measurement of inducible NO-synthase activity ([3H]arginine conversion); type: biochemical; conditions: crude cytosolic fraction containing human inducible NO-synthase; 0.1 μM arginine; 45 to 60 min at 37° C.; read-out: Inhibition of iNOS activity [measured as -logIC50 (mol/l)] (converted)
Method: The assay is performed in 96well microtiter F-plates (Greiner, Frickenhausen, FRG) in a total volume of 100 μl in the presence of 100 nM calmodulin, 226 μM CaCl2, 477 μM MgCl2, 5 μM flavin-adenine-dinucleotide (FAD), 5 μM flavin mononucleotide (FMN), 0.1 mM NADPH, 7 mM glutathione, 10 μM BH4 and 100 mM HEPES pH 7.2. Arginine concentrations are 0.1 μM for enzyme inhibition experiments. 150000 dpm of [^3H]arginine are added to the assay mixture. Enzyme reaction is started by the addition of 4 μg of a crude cytosolic fraction containing human inducible NO-synthase and the reaction mixture is incubated for 45 to 60 min at 37° C. Enzyme reaction is stopped by adding 10 μl of 2M MES-buffer pH 5.0. 50 μl of the incubation mixture are transferred into a MADP N65 filtration microtiter plate (Millipore, Eschborn, FRG) containing already 50 μl of AG-50W-X8 cation exchange resin (Biorad, München, FRG). The resin in the Na loaded form is pre-equilibrated in water and 70 μl (corresponding to 50 μl dry beads) are pipetted under heavy stirring with a 8 channel pipette into the filtration plate. After pipetting 50 μl of the enzyme reaction mixture onto the filtration plates, the plates are placed on a filtration manifold (Porvair, Shepperton, UK) and the flow through is collected in Pico scintillation plates (Packard, Meriden, CT). The resin in the filtration plates is washed with 75 μl of water (1×50 μl and 1×25 μl) which is also collected in the same plate as the sample. The total flow through of 125 μl is mixed with 175 μl of Microscint-40 scintillation cocktail (Packard) and the scintillation plate is sealed with TopSeal P-foil (Packard). Scintillation plates are counted in a scintillation counter.
For the measurement of inducible NO-synthase-inhibiting potencies of compounds increasing concentrations of inhibitors were included into the incubation mixture. IC50-values were calculated from the percent inhibition at given concentrations by nonlinear least square fitting.

Structure (SMILES)	IC50 [1] [nM]	melting point [°C]
COc1ccnc(CCc2nc3cc(-c4ccc5[nH]ccc5c4)cnc3[nH]2)c1 [Example 6, 6-(1H-Indol-5-yl)-2-[2-(4-methoxypyridin-2-yl)ethyl)-3H-imidazo-[4,5-b]pyridine]	49	241 to 242
COc1ccnc(CCc2nc3cc(-c4nc5ccccc5[nH]4)cnc3[nH]2)c1 [Example 7, 6-(1H-Benzoimidazol-2-yl)-2-[2-(4-methoxy-pyridin-2-yl)-ethyl]-3H-imidazo[4,5-b]pyridine]	30.9 to 245	–
COc1ccnc(CCc2nc3cc(-c4nc5cc(C)ccc5[nH]4)cnc3[nH]2)c1 [Example 8, 2-[2-(4-Methoxy-pyridin-2-yl)-ethyl]-6-(5-methyl-1H-benzoimidazol-2-yl)-3H-imidazo[4,5-b]pyridine]	30.9 to 245	–
COc1ccnc(CCc2nc3cc(-c4cc5ccccc5o4)cnc3[nH]2)c1 [Example 10, 6-Benzofuran-2-yl-2-[2-(4-methoxy-pyridin-2-yl)-ethyl]-3H-imidazo[4,5-b]pyridine]	30.9 to 245	–
COc1ccnc(CCc2nc3cc(-c4cc5ccccc5s4)cnc3[nH]2)c1 [Example 11, 6-Benzo[b]thiophen-2-yl-2-[2-(4-methoxy-pyridin-2-yl)-ethyl]-3H-imidazo[4,5-b]pyridine]	30.9 to 245	–
COc1ccnc(CCc2nc3cc(-c4ccc(-c5ccccc5)s4)cnc3[nH]2)c1 [Example 13, 2-[2-(4-Methoxy-pyridin-2-yl)-ethyl]-6-(5-phenyl-thiophen-2-yl)-3H-imidazo[4,5-b]pyridine]	30.9 to 245	–

The remaining lines, values ahead:

IC50 [1] [nM]	melting point [°C]	Structure (SMILES)
49	147 to 148	COc1ccnc(CCc2nc3cc(-c4ccco4)cnc3[nH]2)c1 [Example 1, 6-Furan-2-yl-[2-(4-methoxypyridin-2-yl)ethyl]-3H-imidazo[4,5-b]pyridine]
45.7	193 to 194	COc1ccnc(CCc2nc3cc(-c4ccoc4)cnc3[nH]2)c1 [Example 2, 6-Furan-3-yl-[2-(4-methoxypyridin-2-yl)ethyl]-3H-imidazo[4,5-b]pyridine]
55	237 to 238	COc1ccnc(CCc2nc3cc(-c4ccncc4)cnc3[nH]2)c1 [Example 3, 2-[2-(4-Methoxypyridin-2-yl)ethyl]-6-(pyridin-4-yl)-3H-imidazo-[4,5-b]pyridine]
24.5	132 to 133	COc1ccnc(CCc2nc3cc(-c4cccs4)cnc3[nH]2)c1 [Example 4, 2-[2-(4-Methoxypyridin-2-yl)ethyl]-6-(thiophen-2-yl)-3H-imidazo-[4,5-b]pyridine]
34.7	154 to 155	COc1ccnc(CCc2nc3cc(-c4ccsc4)cnc3[nH]2)c1 [Example 5, 2-[2-(4-Methoxypyridin-2-yl)ethyl]-6-(thiophen-3-yl)-3H-imidazo-[4,5-b]pyridine]
30.9 to 245	–	COc1ccnc(CCc2nc3cc(-c4csc5ccccc45)cnc3[nH]2)c1 [Example 9, 6-Benzo[b]thiophen-3-yl-2-[2-(4-methoxy-pyridin-2-yl)-ethyl]-3H-imidazo[4,5-b]pyridine]
30.9 to 245	–	COc1ccnc(CCc2nc3cc(-c4ccc(C)s4)cnc3[nH]2)c1 [Example 12, 2-[2-(4-Methoxy-pyridin-2-yl)-ethyl]-6-(5-methyl-thiophen-2-yl)-3H-imidazo[4,5-b]pyridine]
